This is an account of results in patent US10364263B2, “Cyclic phosphates and cyclic phosphoramidates for the treatment of neurologic disorders” (Retrophin, Inc., priority 2015, dated 2019).

The nature of series [1]: Stability in mouse hepatocytes. The class given is in vitro ADME.
A short description of series [2]: Stability in human hepatocytes. The class given is in vitro ADME. The settings on record: for half-life: 5 μM, 1 million cells/ml, 37° C., human hepatocytes; for half-life at 5 µM: t1/2, Human Hepatocytes.
Series [3] in a line: Permeability in porcine brain endothelial cell blood-brain barrier model. Format: in vitro ADME. To be noted: pig (endothelial cells), co-cultured with rat astrocytes, pH 7.4, PBECs/As blood-brain barrier model, luminal to basal. The method, boiled down: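 Co-culture of primary porcine brain endothelial cells on Transwell inserts over primary rat astrocytes, with TEER >500 Ω/cm^2 and FITC-dextran integrity control. Compound added apically in HBSS/20 mM Hepes pH 7.4/0.1% BSA and basal amount measured usually after 60 min, by LC-MS/MS, fluorescence or scintillation. Papp in cm/s, corrected for cell-free filter.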

A further series in a line: physchem. The settings on record: buffer, phosphate buffered saline, 10 mM phosphate buffer pH 7.5, 37° C.
The nature of series [4]: Chemical stability in aqueous solution (phosphate buffered saline, NMR).
Protocol: (§1) To measure chemical stability in aqueous solution, the half-life (t1/2), or time needed for the concentration to decrease by half, was determined for select compounds in phosphate buffered saline solution. Compounds were dissolved in a solution containing 10 mM phosphate buffer (pH 7.5) and 5% of D2O to a final concentration of −1 mM. All spectra were obtained at 37° C. on a Bruker Avance 600 NMR spectrometer equipped with an inverse broad-band probe with z-gradients. Data were obtained every 15 min for a total time period of 4 h or longer, according to the observed stability. ^31P NMR was performed at 242.55 MHz, with gated decoupling of the protons. An observation frequency range of 14619.9 Hz and 32 K complex data points were used for acquisition. A pulse angle of 90° and a 4-sec pulse cycle were utilized. Thirty-two accumulations were obtained before Fourier transformation of the free induction decay. ^1H NMR spectra were acquired using the 1DNOESY experiment with water presaturation for better solvent suppression. An observation frequency range of 12019.23 Hz, a 10-sec pulse cycle, and 32 K complex data points were used for acquisition. Sixty-four scans were added prior to Fourier transformation. Integral data were obtained using the TopSpin software.
(§2) Stability was determined based on analysis of disappearance of the compounds as a function of incubation time. Quantification of test compounds was measured as a peak area relative to an internal standard. The elimination constant, k, was calculated by plotting mean disappearance values on a semi-logarithmic scale and fitting with a best fit linear regression. The half-life (t1/2) expressed in hours was derived using Equation 1: t1/2=ln2/(−k). Equation 1:
Setting [5] is: Diastereoisomer A (upfield shift in 31P NMR), 5 μM, 1 million cells/ml, 37° C., mouse hepatocytes, read-out: t1/2, Mouse Hepatocytes, Diastereoisomer A (converted).
The mark [6] stands for this setting: Diastereoisomer B, 5 μM, 1 million cells/ml, 37° C., mouse hepatocytes, read-out: t1/2, Mouse Hepatocytes, Diastereoisomer B (converted).
The mark [7] stands for this setting: Diastereoisomer A (upfield shift in 31P NMR), read-out: t1/2, Human Hepatocytes, Diastereoisomer A (converted).
The mark [8] stands for this setting: Diastereoisomer B, read-out: t1/2, Human Hepatocytes, Diastereoisomer B (converted).
Setting [9] is: Diastereoisomer A, read-out: Papp Diastereoisomer A.
[10] abbreviates: Diastereoisomer B, read-out: Papp Diastereoisomer B.
Setting [11] is: pH 7.5, t1/2 (h) Diastereoisomer A, Diastereoisomer A = upfield shift in the 31P NMR.
[12] abbreviates: pH 7.5, t1/2 (h) Diastereoisomer B, Diastereoisomer B.
The mark [13] stands for this setting: t1/2, Mouse Hepatocytes, Diastereoisomer A.

Like-named read-outs stand apart in the source and are kept apart here.

Protocol for physchem: as §1, §2

For `COC(=O)CCNC(=O)[C@@H]1OP(=O)(N[C@H](C)C(=O)OC)OCC1(C)C` (stereo partly drawn) [compound 16, methyl 3-((4R)-2-(((R)-1-methoxy-1-oxopropan-2-yl)amino)-5,5-dimethyl-2-oxido-1,3,2-dioxaphosphinane-4-carboxamido)propanoate], the half-life at 5 µM was 0.72 h in series [1] (setting [5]) and 0.26 h in series [1] (setting [6]). In addition, the half-life in series [2] (setting [7]) is > 4 h; in series [2] (setting [8]) it was 1.34 h; in “physchem” (setting [11]), > 80 h; in “physchem” (setting [12]), > 80 h. Besides, the Papp A→B at 60 min in series [3] (setting [9]) came to 33.3 nm/s; in series [3] (setting [10]), 43.5 nm/s.
Regarding `COC(=O)CCNC(=O)[C@@H]1OP(=O)(N[C@@H](C)C(=O)OC)OCC1(C)C` (stereo partly drawn) [compound 5, methyl 3-((4R)-2-(((S)-1-methoxy-1-oxopropan-2-yl)amino)-5,5-dimethyl-2-oxido-1,3,2-dioxaphosphinane-4-carboxamido)propanoate], the half-life at 5 µM in series [1] (setting [5]) is 0.38 h; in series [1] (setting [6]) it was 0.3 h. Besides, the half-life in series [2] (setting [7]) is 2.65 h; in series [2] (setting [8]), 1 h; in “physchem” (setting [11]), 40 h; in the series “physchem” (setting [12]), 40 h. Also, the Papp A→B at 60 min in series [3] (setting [9]) came out at 62.7 nm/s; in series [3] (setting [10]) it was 50.6 nm/s.
On to `COC(=O)CCNC(=O)[C@@H]1OP(=O)(N[C@@H](C)C(=O)OCc2cc(C)cc(C)c2)OCC1(C)C` (stereo partly drawn) [compound 3, (2S)-3,5-dimethylbenzyl 2-(((4R)-4-((3-methoxy-3-oxopropyl)carbamoyl)-5,5-dimethyl-2-oxido-1,3,2-dioxaphosphinan-2-yl)amino)propanoate], for which the half-life at 5 µM was < 0.25 h in series [1] (setting [13]); < 0.25 h in series [1] (t1/2, Mouse Hepatocytes, Diastereoisomer B); < 0.25 h in series [2] (Diastereoisomer A); < 0.25 h in series [2] (Diastereoisomer B). The values for the Papp A→B at 60 min in series [3] (setting [9]) and in series [3] (setting [10]) were 99.9 nm/s and 84.7 nm/s, respectively. In addition, the half-life at 1 mM is > 80 h in series [4] (pH 7.5, t1/2 (h) Diastereoisomer A, 10 mM phosphate buffer pH 7.5, 37° C., Diastereoisomer A = upfield shift in the 31P NMR) and > 80 h in series [4] (pH 7.5, t1/2 (h) Diastereoisomer B, 10 mM phosphate buffer pH 7.5, 37° C., Diastereoisomer B).
Consider `COC(=O)CCNC(=O)[C@@H]1OP(=O)(NCCN2CCCC2)OCC1(C)C` (stereo partly drawn) [compound 109, methyl 3-((4R)-5,5-dimethyl-2-oxido-2-((2-(pyrrolidin-1-yl)ethyl)amino)-1,3,2-dioxaphosphinane-4-carboxamido)propanoate], for which the half-life at 5 µM in series [1] (setting [5]) is 3.39 h. Besides, the half-life in series [2] (setting [7]) was > 4 h; in the series “physchem” (setting [11]) it was 48 h; in “physchem” (setting [12]) it was 15.4 h. In addition, the Papp A→B at 60 min in series [3] (setting [9]) was found to be 52.6 nm/s.
For `CC1(C)COP(=O)(O)O[C@H]1C(=O)NCCC(=O)O` [compound 108, 3-((4R)-2-hydroxy-5,5-dimethyl-2-oxido-1,3,2-dioxaphosphinane-4-carboxamido)propanoic acid], the half-life at 5 µM in series [1] (setting [13]) and in series [2] (Diastereoisomer A) was 0.25 h each time. The Papp A→B at 60 min in series [3] (setting [9]) is 5.8 nm/s. In addition, the half-life at 1 mM in series [4] (pH 7.5, t1/2 (h), pH 7.5, 37° C., compound not chiral at phosphorous, one value spanning both columns) was > 100 h.
